Each structure is given as a SMILES string.

This test relates to N8-acetylspermidine deacetylase (Rattus norvegicus). The test can be described thus: Inhibition of [acetyl-3H]-N8-Acetylspermidine deacetylase; NI = No inhibition.

With `COC(=O)NCCCCCCN`, the Ki app entry is recorded as “Not Active”.

Source of the values: ChEMBL document CHEMBL1124471, “Design and synthesis of inhibitors of N8-acetylspermidine deacetylase” (J Med Chem, 1989).
